Where “and” joins values, the source holds several entries; their conditions need not be identical. Equal values may be shown once. ± gives the expanded uncertainty stated by the source.
Columns and labels:
[1] = 101.33 kPa, Liquid; for speed of sound: Sing-around technique in a fixed-path interferometer; for mass density: Vibrating tube method; for viscosity: Concentric cylinders viscometry
[2] = refractive index (Na D-line) (dimensionless); settings: 101.33 kPa, Liquid, Standard Abbe refractometry

CCOCCOCCO [3,6-dioxa-1-octanol]
Settings	mass density, [1]	refractive index, [2]	speed of sound, [1] [m/s]	viscosity, [1] [mPa·s]
283.15 K	997.1 ± 4.1 kg/m3	1.4311 ± 0.0007	1428.9 ± 2.3	–
288.15 K	993.9 ± 4.1 kg/m3 and 992.6 ± 4.1 kg/m3	1.42916 ± 0.0007	1410.5 ± 2.3	5.157 ± 0.21
293.15 K	989.4 ± 4.1 kg/m3 and 988.2 ± 4.1 kg/m3	1.42711 ± 0.0007	1392.6 ± 2.3	4.466 ± 0.18
298.15 K	983.7 ± 4.1 kg/m3 and 984.9 ± 4.1 kg/m3	1.42501 ± 0.0007	1374.6 ± 2.3	3.811 ± 0.16
303.15 K	979.3 ± 4.1 kg/m3 and 980.4 ± 4.1 kg/m3	1.4229 ± 0.0007	1356.8 ± 2.3	3.328 ± 0.14
308.15 K	974.8 ± 4.1 kg/m3 and 976 ± 4.1 kg/m3	–	1339 ± 2.3	2.933 ± 0.12
313.15 K	970.3 ± 4.1 kg/m3 and 971.5 ± 4.1 kg/m3	1.41887 ± 0.0007	1321.7 ± 2.3	2.592 ± 0.11
318.15 K	967 ± 4.1 kg/m3	–	–	2.331 ± 0.097
323.15 K	961.3 ± 4.1 kg/m3 and 962.5 ± 4.1 kg/m3	1.41483 ± 0.0007	1286.9 ± 2.3	2.099 ± 0.087
328.15 K	958.1 ± 4.1 kg/m3	–	–	1.901 ± 0.079
333.15 K	952.2 ± 4.1 kg/m3 and 953.5 ± 4.1 kg/m3	1.41082 ± 0.0007	1252.6 ± 2.3	1.718 ± 0.071
338.15 K	949 ± 4.1 kg/m3	–	–	1.583 ± 0.066
343.15 K	944.4 ± 4.1 kg/m3 and 943.1 ± 4.1 kg/m3	1.40683 ± 0.0007	1218.9 ± 2.3	1.456 ± 0.061
348.15 K	939.9 ± 4.1 kg/m3	–	–	1.343 ± 0.056
353.15 K	935.3 ± 4.1 kg/m3	1.40276 ± 0.0007	–	1.225 ± 0.051
358.15 K	930.7 ± 4.1 kg/m3	–	–	1.153 ± 0.048
363.15 K	926.1 ± 4.1 kg/m3	–	–	1.072 ± 0.045
368.15 K	921.4 ± 4.1 kg/m3	–	–	0.997 ± 0.042
373.15 K	916.8 ± 4.1 kg/m3	–	–	0.921 ± 0.038

CCOCCOCCOCC [diethylene glycol diethyl ether]
Settings	mass density, [1]	refractive index, [2]	speed of sound, [1] [m/s]	viscosity, [1] [mPa·s]
283.15 K	917 ± 4.1 kg/m3	1.41658 ± 0.0007	1303.4 ± 2.3	–
288.15 K	914.4 ± 4.1 kg/m3 and 912.2 ± 4.1 kg/m3	1.41428 ± 0.0007	1283.2 ± 2.3	1.483 ± 0.062
293.15 K	909.6 ± 4.1 kg/m3 and 907.4 ± 4.1 kg/m3	1.41202 ± 0.0007	1263.1 ± 2.3	1.353 ± 0.056
298.15 K	902.6 ± 4.1 kg/m3 and 904.7 ± 4.1 kg/m3	1.40978 ± 0.0007	1243.3 ± 2.3	1.254 ± 0.052
303.15 K	897.7 ± 4.1 kg/m3 and 899.8 ± 4.1 kg/m3	1.40749 ± 0.0007	1223.4 ± 2.3	1.156 ± 0.048
308.15 K	892.9 ± 4.1 kg/m3 and 895 ± 4.1 kg/m3	–	1203.9 ± 2.3	1.067 ± 0.044
313.15 K	888.1 ± 4.1 kg/m3 and 890.1 ± 4.1 kg/m3	1.40296 ± 0.0007	1184.1 ± 2.3	0.9874 ± 0.041
318.15 K	885.3 ± 4.1 kg/m3	–	–	0.916 ± 0.038
323.15 K	878.4 ± 4.1 kg/m3 and 880.4 ± 4.1 kg/m3	1.39838 ± 0.0007	1145.1 ± 2.3	0.852 ± 0.036
328.15 K	875.6 ± 4.1 kg/m3	–	–	0.795 ± 0.033
333.15 K	868.7 ± 4 kg/m3 and 870.7 ± 4.1 kg/m3	1.39382 ± 0.0007	1107.9 ± 2.3	0.744 ± 0.031
338.15 K	865.9 ± 4 kg/m3	–	–	0.699 ± 0.029
343.15 K	861 ± 4 kg/m3 and 858.9 ± 4 kg/m3	1.38929 ± 0.0007	1071.6 ± 2.3	0.658 ± 0.028
348.15 K	856.1 ± 4 kg/m3	–	–	0.621 ± 0.026
353.15 K	851.2 ± 4 kg/m3	1.38474 ± 0.0007	–	0.587 ± 0.025
358.15 K	846.3 ± 4 kg/m3	–	–	0.556 ± 0.023
363.15 K	841.4 ± 4 kg/m3	–	–	0.526 ± 0.022
368.15 K	836.5 ± 4 kg/m3	–	–	0.498 ± 0.021
373.15 K	831.6 ± 4 kg/m3	–	–	0.47 ± 0.02

OCCOCCO [diethylene glycol]
Settings	mass density, [1]	refractive index, [2]	speed of sound, [1] [m/s]	viscosity, [1] [mPa·s]
283.15 K	1123.3 ± 2 kg/m3	1.45019 ± 0.00061	1615.9 ± 1.6	–
288.15 K	1121.4 ± 2 kg/m3 and 1119.8 ± 2 kg/m3	1.4486 ± 0.00061	1603.6 ± 1.6	47.14 ± 1.9
293.15 K	1117.8 ± 2 kg/m3 and 1116.2 ± 2 kg/m3	1.44702 ± 0.00061	1591.4 ± 1.6	36.02 ± 1.5
298.15 K	1112.7 ± 2 kg/m3 and 1114.2 ± 2 kg/m3	1.4454 ± 0.00061	1579.2 ± 1.6	28.23 ± 1.1
303.15 K	1109.1 ± 2 kg/m3 and 1110.6 ± 2 kg/m3	1.44379 ± 0.00061	1566.9 ± 1.6	22.48 ± 0.91
308.15 K	1105.5 ± 2 kg/m3 and 1107 ± 2 kg/m3	–	1554.9 ± 1.6	18.18 ± 0.74
313.15 K	1101.9 ± 2 kg/m3 and 1103.4 ± 2 kg/m3	1.44068 ± 0.00061	1542.8 ± 1.6	14.85 ± 0.6
318.15 K	1099.7 ± 2 kg/m3	–	–	12.4 ± 0.5
323.15 K	1094.7 ± 2 kg/m3 and 1096.1 ± 2 kg/m3	1.43745 ± 0.00061	1518.8 ± 1.6	10.42 ± 0.42
328.15 K	1092.5 ± 2 kg/m3	–	–	8.849 ± 0.36
333.15 K	1087.4 ± 2 kg/m3 and 1088.8 ± 2 kg/m3	1.43424 ± 0.00061	1494.5 ± 1.6	7.57 ± 0.31
338.15 K	1085.2 ± 2 kg/m3	–	–	6.561 ± 0.27
343.15 K	1081.5 ± 2 kg/m3 and 1080 ± 2 kg/m3	1.43105 ± 0.00061	1470.1 ± 1.6	5.718 ± 0.23
348.15 K	1077.8 ± 2 kg/m3	–	–	5.019 ± 0.2
353.15 K	1074.1 ± 2 kg/m3	1.42786 ± 0.00061	–	4.429 ± 0.18
358.15 K	1070.3 ± 2 kg/m3	–	–	3.944 ± 0.16
363.15 K	1066.6 ± 2 kg/m3	–	–	3.527 ± 0.14
368.15 K	1062.8 ± 2 kg/m3	–	–	3.169 ± 0.13
373.15 K	1059 ± 2 kg/m3	–	–	2.871 ± 0.12

OCCOCCOCCO [triethylene glycol]
Settings	mass density, [1]	refractive index, [2]	speed of sound, [1] [m/s]	viscosity, [1] [mPa·s]
283.15 K	1131.3 ± 2 kg/m3	1.45944 ± 0.00061	1658.7 ± 1.6	–
288.15 K	1128.6 ± 2 kg/m3 and 1127.4 ± 2 kg/m3	1.45774 ± 0.00061	1642.8 ± 1.6	63.57 ± 2.6
293.15 K	1124.6 ± 2 kg/m3 and 1123.5 ± 2 kg/m3	1.4561 ± 0.00061	1627.2 ± 1.6	48.05 ± 1.9
298.15 K	1119.7 ± 2 kg/m3 and 1120.7 ± 2 kg/m3	1.45447 ± 0.00061	1611.5 ± 1.6	37.27 ± 1.5
303.15 K	1115.8 ± 2 kg/m3 and 1116.8 ± 2 kg/m3	1.45283 ± 0.00061	1596.2 ± 1.6	29.41 ± 1.2
308.15 K	1111.9 ± 2 kg/m3 and 1112.9 ± 2 kg/m3	–	1581.1 ± 1.6	23.6 ± 0.95
313.15 K	1108 ± 2 kg/m3 and 1109 ± 2 kg/m3	1.44955 ± 0.00061	1566 ± 1.6	19.16 ± 0.78
318.15 K	1105.1 ± 2 kg/m3	–	–	15.86 ± 0.64
323.15 K	1100.2 ± 2 kg/m3 and 1101.2 ± 2 kg/m3	1.44626 ± 0.00061	1536.3 ± 1.6	13.25 ± 0.54
328.15 K	1097.3 ± 2 kg/m3	–	–	11.19 ± 0.45
333.15 K	1092.4 ± 2 kg/m3 and 1093.4 ± 2 kg/m3	1.44293 ± 0.00061	1506.8 ± 1.6	9.528 ± 0.38
338.15 K	1089.5 ± 2 kg/m3	–	–	8.221 ± 0.33
343.15 K	1085.6 ± 2 kg/m3 and 1084.5 ± 2 kg/m3	1.43956 ± 0.00061	1477.5 ± 1.6	7.137 ± 0.29
348.15 K	1081.7 ± 2 kg/m3	–	–	6.243 ± 0.25
353.15 K	1077.8 ± 2 kg/m3	1.43622 ± 0.00061	–	5.487 ± 0.22
358.15 K	1073.8 ± 2 kg/m3	–	–	4.874 ± 0.2
363.15 K	1069.8 ± 2 kg/m3	–	–	4.346 ± 0.18
368.15 K	1065.9 ± 2 kg/m3	–	–	3.896 ± 0.16
373.15 K	1061.9 ± 2 kg/m3	–	–	3.515 ± 0.14

From the NIST ThermoML archive (doi:10.1021/acs.jced.5b00662)
